Assay results: patent US11332490B1, “Compounds and methods for treating osteoarthritis” (Academia Sinica, priority 2021, dated 2022)
“Also recorded” adds a separate entry of the source. One block for each compound: values may come before it.

Tests used:
Sulf-1 [1] = target: T1, Sulf-1 (Homo sapiens, UniProt Q8IWU6); assay: HPLC assay of sulfate ion release from the substrate by Sulf-1; settings: substrate 480 μM, treated with human Sulf-1, HPLC
Experimental: (§1) HPLC assay. […] Release of the sulfate ion from the substrate was quantified via HPLC. Each sample (5 μL) was injected to AS9HC anion-exchange column (Dionex), and the sulfate ion was eluted by 9 mM Na2CO3 then analyzed by a conductivity detector (PROD, AERS500, 4 mm, Thermal) with reagent-free controller (PROD, RFC-10) and compared with a standard curve with Na2SO4 (Merck) from 0 to 500 μM.

Sulf-1 [2] = target: T1, Sulf-1; assay: Competition assay with 4-MUS substrate (fluorogenic); assay type: biochemical; set-up: made in house; settings: for EC50: competition with 4-MUS for Sulf-1
Experimental: Competition assay with 4-MUS substrate. […] A control mixture without the competing substrate was defined as 100% fluorescent intensity, and the sample with substrate was determined as percentage of fluorescent intensity: (Fluorescent intensity of substrate sample)/(Fluorescent intensity of control sample).
HS oligosaccharides of Example 1.2 were used as competing substrates in the presence of 4-MUS for the identification of Sulf-1 substrate. Compounds 18-20 as well as the commercially available heparin 3000 were independently assessed for their competing effect on 4-MUS cleavage by Sulf-1 to yield the fluorescent 4-methylumbelliferone (4-MU) (FIG. 1, (A)).

Sulf-1 [3] = target: T1, Sulf-1; assay: Sulf-1 inhibition assay (4-MU released from 4-MUS)
Source text: Sulf-1 inhibition assay. […] The data obtained were fitted to the Michaelis-Menten equation using the GraphPad to determine the enzyme inhibition parameters.

human Sulf-1d417-726 = target: T2, human Sulf-1d417-726 (Homo sapiens, UniProt Q8IWU6, DEL417-726); assay: Determination of dissociation constant (KD) using surface plasmon resonance; assay type: binding; settings: compound immobilized on CM5 sensor chip, 1:1 Langmuir model
T2 construct: made in house
Experimental: Determination of dissociation constant (KD) using surface plasmon resonance. Compound 46 was immobilized on the surface of a Biacore sensor chip (GE Healthcare) according to the manufacturer's guidelines using Biacore T200 system. The kinetic analysis study was performed at different concentrations of hSulf1d417-726 protein upon serial dilution to 250, 125, 63, 31 and 15 nM in running buffer [20 mM NaOAc (pH 5.0), 150 mM NaCl, and 0.05% Tween 20] and injected on to the chip surface with a flow rate of 25 μL/min at 25° C. In each run, the chip sensor surface was regenerated by injecting 4 M NaCl. The titration curves fit well to a 1:1 Langmuir binding model for calculations of equilibrium constants.
With highest inhibitory activity, the binding affinity of the inhibitor 46 with human Sulf-1 was further measured by surface plasmon resonance (SPR). The hydrophilic domain-deleted mutant of Sulf-1, namely human Sulf-1d417-726, lacking two furin-type proteinase cleavage sites responsible for forming the disulfide-bonded heterodimers of 75- and 50-kDa subunits with retained enzyme activity was constructed according to the literature report. Compound 46 was immobilized on the CM5 sensor chip, and aliquots of human Sulf-1d417-726 at gradient concentrations were applied onto the chip.

[4] = tested on: NCCCCCO[C@@H]1OC(C(=O)O)C(O[C@H]2OC(COS(=O)(=O)O)[C@@H](O[C@@H]3OC(C(=O)O)C(O)[C@@H](O)C3OS(=O)(=O)O)[C@H](O)C2NS(=O)(=O)O)[C@@H](O)C1OS(=O)(=O)O; assay: purified protein, by the assay type; settings: other: released sulfate at different substrate concentrations; pH 7.4; 37.0 °C
Experimental: as §1

Compound: NCCCCCO[C@@H]1OC(C(=O)O)C(O[C@@H]2OC(COS(=O)(=O)O)[C@@H](O)C(O)C2NS(=O)(=O)O)[C@@H](O)C1OS(=O)(=O)O (stereo partly drawn) [Compound 18]
- sulfate concentration upon hydrolysis by Sulf-1 (Sulf-1 [1]): 5.9 µM
- fluorescence intensity (4-MUS hydrolysis, % of control) (Sulf-1 [2]; competitor 320 μM, 4-MUS 4.35 mM, 4-MUS with Sulf-1 in pure water = 100%): 94.5%

Compound: NCCCCCO[C@@H]1O[C@@H](C(=O)O)[C@@H](O[C@H]2O[C@H](COS(=O)(=O)O)[C@@H](O[C@@H]3O[C@@H](C(=O)O)[C@@H](O[C@H]4O[C@H](COS(=O)(=O)O)[C@@H](O)[C@H](O)[C@H]4NS(=O)(=O)O)[C@H](O)[C@H]3OS(=O)(=O)O)[C@H](O)[C@H]2NS(=O)(=O)O)[C@H](O)[C@H]1OS(=O)(=O)O [Compound 19]
- sulfate concentration upon hydrolysis by Sulf-1 (Sulf-1 [1]): 46.2 µM
- EC50 (Sulf-1 [2]): 87800 nM
- competing effect on 4-MUS cleavage by Sulf-1 (in words) (Sulf-1 [2]; competitor 320 μM (0.32 mM), 4-MUS 4.35 mM): strongly compete with 4-MUS; also recorded: good binder

Compound: NCCCCCO[C@@H]1OC(C(=O)O)C(O[C@H]2OC(COS(=O)(=O)O)[C@@H](O[C@@H]3OC(C(=O)O)C(O)[C@@H](O)C3OS(=O)(=O)O)[C@H](O)C2NS(=O)(=O)O)[C@@H](O)C1OS(=O)(=O)O (stereo partly drawn) [Compound 36]
- EC50 (Sulf-1 [2]): 3800 nM

Compound: human Sulf-1 (Homo sapiens)
- Km [4]: 25.8 µM

Results, then the compound that gave them:

- inhibition at 700 µM (Sulf-1 [3]; read-out: Sulf-1 activity inhibited): 20%
Compound: NCCCCCO[C@@H]1OC(C(=O)O)C(O[C@H]2OC(COS(N)(=O)=O)[C@@H](O)C(O)C2NS(=O)(=O)O)[C@@H](O)C1OS(=O)(=O)O (stereo partly drawn) [Compound 45]

- Kd (human Sulf-1d417-726): 12 nM
- IC50 (Sulf-1 [3]): 530 nM
- Ki (Sulf-1 [3]): 360 nM
Compound: NCCCCCO[C@@H]1O[C@@H](C(=O)O)[C@@H](O[C@H]2O[C@H](COS(N)(=O)=O)[C@@H](O[C@@H]3O[C@@H](C(=O)O)[C@@H](O)[C@H](O)[C@H]3OS(=O)(=O)O)[C@H](O)[C@H]2NS(=O)(=O)O)[C@H](O)[C@H]1OS(=O)(=O)O [Compound 46]

- IC50 (Sulf-1 [3]): 29600 nM
Compound: NCCCCCO[C@@H]1O[C@@H](C(=O)O)[C@@H](O[C@H]2O[C@H](COS(N)(=O)=O)[C@@H](O[C@@H]3O[C@@H](C(=O)O)[C@@H](O[C@H]4O[C@H](COS(N)(=O)=O)[C@@H](O)[C@H](O)[C@H]4NS(=O)(=O)O)[C@H](O)[C@H]3OS(=O)(=O)O)[C@H](O)[C@H]2NS(=O)(=O)O)[C@H](O)[C@H]1OS(=O)(=O)O [Compound 47]
